Tests used:
D(1A) dopamine receptor = D(1A) dopamine receptor (Homo sapiens, UniProt P21728); test: DRUGMATRIX: Dopamine D1 radioligand binding (ligand: [3H] SCH-23390); assay type: cell membranes, CHO, Membrane; conditions: cho; Not Active = under 50% inhibition at 10 µM
[1] = biological target: Protein phosphatase 3 catalytic subunit alpha (Homo sapiens, UniProt Q08209); design: species or system Escherichia coli;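 note: inhibition of calcineurin (PP2B) enzyme activity, measured with DiFMUP as the substrate; in other assays of this panel Not Active means under 50% inhibition at 10 µM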
[2] = DRUGMATRIX: Sodium/nucleoside co-transporter radioligand binding (ligand: nitrobenzylthioinosine); assay type: cell membranes, Cavia porcellus, Dunkin-Hartley, Cerebral cortex, Membrane; conditions: Not Active = under 50% inhibition at 10 µM
Insulin receptor = Insulin receptor (Rattus norvegicus, UniProt P15127); assay type: cell membranes, Wistar, Liver, Membrane; note: in other assays of this panel Not Active means under 50% inhibition at 10 µM
Insulin receptor, sequence (P15127 27-759 limits assumed): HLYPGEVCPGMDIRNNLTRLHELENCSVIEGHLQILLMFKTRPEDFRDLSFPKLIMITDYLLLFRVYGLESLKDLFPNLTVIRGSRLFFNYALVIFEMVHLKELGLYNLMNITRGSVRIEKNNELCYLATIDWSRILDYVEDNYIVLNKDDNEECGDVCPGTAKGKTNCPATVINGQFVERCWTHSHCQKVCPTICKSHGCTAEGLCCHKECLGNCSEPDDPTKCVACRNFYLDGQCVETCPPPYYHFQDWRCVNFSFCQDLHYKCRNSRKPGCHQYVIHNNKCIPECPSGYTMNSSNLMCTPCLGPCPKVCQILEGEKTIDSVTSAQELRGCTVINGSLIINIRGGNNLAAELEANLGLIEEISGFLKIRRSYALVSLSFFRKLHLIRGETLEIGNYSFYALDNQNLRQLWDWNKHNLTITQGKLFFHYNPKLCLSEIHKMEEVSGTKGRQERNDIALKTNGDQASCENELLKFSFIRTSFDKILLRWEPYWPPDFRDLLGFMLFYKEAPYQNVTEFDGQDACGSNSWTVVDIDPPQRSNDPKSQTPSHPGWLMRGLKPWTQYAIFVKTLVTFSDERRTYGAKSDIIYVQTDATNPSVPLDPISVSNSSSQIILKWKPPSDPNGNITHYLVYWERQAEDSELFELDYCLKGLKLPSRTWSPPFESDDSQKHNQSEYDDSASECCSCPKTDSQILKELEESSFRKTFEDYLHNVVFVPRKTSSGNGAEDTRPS
Insulin receptor, sequence (P15127 764-1383 limits assumed): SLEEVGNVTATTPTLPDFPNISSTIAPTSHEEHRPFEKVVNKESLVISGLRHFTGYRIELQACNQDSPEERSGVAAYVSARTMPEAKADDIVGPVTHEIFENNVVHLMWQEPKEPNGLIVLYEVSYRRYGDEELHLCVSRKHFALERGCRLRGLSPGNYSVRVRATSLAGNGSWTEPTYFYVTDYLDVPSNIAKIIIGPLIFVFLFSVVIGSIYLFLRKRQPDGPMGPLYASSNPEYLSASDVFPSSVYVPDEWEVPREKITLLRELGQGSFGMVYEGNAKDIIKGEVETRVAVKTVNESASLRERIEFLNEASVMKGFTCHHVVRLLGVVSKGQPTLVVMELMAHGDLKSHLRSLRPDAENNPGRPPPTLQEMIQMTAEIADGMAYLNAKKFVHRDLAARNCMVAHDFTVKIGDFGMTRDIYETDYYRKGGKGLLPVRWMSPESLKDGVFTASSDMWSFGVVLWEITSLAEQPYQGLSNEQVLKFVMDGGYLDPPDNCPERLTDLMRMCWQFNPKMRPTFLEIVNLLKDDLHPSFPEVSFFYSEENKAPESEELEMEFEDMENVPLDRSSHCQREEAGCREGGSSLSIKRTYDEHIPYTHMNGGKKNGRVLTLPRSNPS

[3] = biological target: 5-hydroxytryptamine receptor 4 (Cavia porcellus, UniProt O70528); assay type: cell membranes, Dunkin-Hartley, Striatum, Membrane; note: in other assays of this panel Not Active means under 50% inhibition at 10 µM
5-hydroxytryptamine receptor 4, sequence (O70528 whole entry): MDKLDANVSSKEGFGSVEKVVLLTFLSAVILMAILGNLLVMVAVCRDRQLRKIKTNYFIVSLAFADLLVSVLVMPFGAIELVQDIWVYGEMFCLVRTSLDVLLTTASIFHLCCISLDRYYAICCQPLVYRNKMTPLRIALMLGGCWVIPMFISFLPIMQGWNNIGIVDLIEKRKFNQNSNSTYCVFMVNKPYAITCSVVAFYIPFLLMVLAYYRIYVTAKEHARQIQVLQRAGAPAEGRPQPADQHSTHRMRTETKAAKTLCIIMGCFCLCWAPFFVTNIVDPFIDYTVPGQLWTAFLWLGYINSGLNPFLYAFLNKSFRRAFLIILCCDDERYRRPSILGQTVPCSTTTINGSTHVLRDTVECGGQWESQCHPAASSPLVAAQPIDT

[4] = biological target: T1, C-X-C chemokine receptor type 1 (Homo sapiens, UniProt P25024); note: in other assays of this panel Not Active means under 50% inhibition at 10 µM
T1 sequence (P25024 whole entry): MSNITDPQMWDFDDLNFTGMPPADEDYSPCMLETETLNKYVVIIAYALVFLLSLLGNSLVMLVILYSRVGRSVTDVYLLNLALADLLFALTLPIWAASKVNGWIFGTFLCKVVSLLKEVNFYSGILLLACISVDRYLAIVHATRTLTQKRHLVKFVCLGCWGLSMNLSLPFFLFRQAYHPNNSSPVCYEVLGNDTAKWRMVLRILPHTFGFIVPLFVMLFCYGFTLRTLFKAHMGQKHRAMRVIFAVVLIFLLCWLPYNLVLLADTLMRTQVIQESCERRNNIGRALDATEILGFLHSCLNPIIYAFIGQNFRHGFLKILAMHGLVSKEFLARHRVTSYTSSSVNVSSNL

[5] = biological target: cGMP-specific 3',5'-cyclic phosphodiesterase (Homo sapiens, UniProt O76074); test: DRUGMATRIX: Phosphodiesterase PDE5 enzyme inhibition (substrate: [3H]cGMP + cGMP); assay type: tissue-based, Platelet; conditions: platelet; Not Active = under 50% inhibition at 10 µM
[6] = DRUGMATRIX: Glutamate, AMPA radioligand binding (ligand: [3H] AMPA); assay type: cell membranes, Rattus norvegicus, Wistar, Cerebral cortex, Membrane; conditions: Not Active = under 50% inhibition at 10 µM
[7] = biological target: Tyrosine-protein kinase Fyn (Homo sapiens, UniProt P06241); test: biochemical; assay type: cell-based, Insect cells; conditions: insect cells
Tyrosine-protein kinase Fyn, sequence (P06241 whole entry): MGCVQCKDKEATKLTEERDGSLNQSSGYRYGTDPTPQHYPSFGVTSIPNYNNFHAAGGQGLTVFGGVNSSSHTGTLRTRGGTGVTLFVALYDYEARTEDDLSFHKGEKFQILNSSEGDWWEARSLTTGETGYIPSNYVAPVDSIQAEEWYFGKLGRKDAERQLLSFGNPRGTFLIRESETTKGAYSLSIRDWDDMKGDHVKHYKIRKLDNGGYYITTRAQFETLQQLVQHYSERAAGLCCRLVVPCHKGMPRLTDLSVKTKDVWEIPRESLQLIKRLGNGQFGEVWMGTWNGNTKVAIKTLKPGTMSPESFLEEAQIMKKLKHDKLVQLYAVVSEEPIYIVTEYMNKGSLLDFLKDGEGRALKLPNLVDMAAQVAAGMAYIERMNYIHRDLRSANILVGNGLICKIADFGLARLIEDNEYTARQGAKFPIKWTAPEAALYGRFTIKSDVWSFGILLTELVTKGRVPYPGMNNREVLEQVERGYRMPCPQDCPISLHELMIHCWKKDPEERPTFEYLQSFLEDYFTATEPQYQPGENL

[8] = biological target: T2, Muscarinic acetylcholine receptor M4 (Homo sapiens, UniProt P08173); assay type: cell membranes, CHO-K1, Membrane; conditions: cho-k1; note: in other assays of this panel Not Active means under 50% inhibition at 10 µM
T2 sequence (P08173 whole entry): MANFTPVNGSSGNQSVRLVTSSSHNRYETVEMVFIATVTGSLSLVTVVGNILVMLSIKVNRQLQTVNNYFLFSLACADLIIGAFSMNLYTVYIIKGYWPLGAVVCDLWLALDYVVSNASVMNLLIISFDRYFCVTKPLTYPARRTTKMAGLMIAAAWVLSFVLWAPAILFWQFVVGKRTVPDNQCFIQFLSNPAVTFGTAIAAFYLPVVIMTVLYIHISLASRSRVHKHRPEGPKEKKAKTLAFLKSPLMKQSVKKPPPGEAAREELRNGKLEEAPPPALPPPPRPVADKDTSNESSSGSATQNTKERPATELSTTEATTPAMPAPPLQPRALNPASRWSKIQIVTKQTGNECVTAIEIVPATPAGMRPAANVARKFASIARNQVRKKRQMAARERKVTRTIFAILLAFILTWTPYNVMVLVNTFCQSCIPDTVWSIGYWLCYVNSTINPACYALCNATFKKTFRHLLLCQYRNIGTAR

[9] = DRUGMATRIX: Serotonin (5-Hydroxytryptamine) 5-HT3 radioligand binding (ligand: [3H] GR-65630); assay type: cell membranes, Membrane; conditions: hek293; Not Active = under 50% inhibition at 10 µM
[10] = DRUGMATRIX: Phorbol Ester radioligand binding (ligand: [3H] PDBu); assay type: cell membranes, Mus musculus, ICR, Brain, Membrane; conditions: Not Active = under 50% inhibition at 10 µM
Neutrophil elastase = biological target: T3, Neutrophil elastase (Homo sapiens, UniProt P08246); assay type: tissue-based
T3 sequence (P08246 whole entry): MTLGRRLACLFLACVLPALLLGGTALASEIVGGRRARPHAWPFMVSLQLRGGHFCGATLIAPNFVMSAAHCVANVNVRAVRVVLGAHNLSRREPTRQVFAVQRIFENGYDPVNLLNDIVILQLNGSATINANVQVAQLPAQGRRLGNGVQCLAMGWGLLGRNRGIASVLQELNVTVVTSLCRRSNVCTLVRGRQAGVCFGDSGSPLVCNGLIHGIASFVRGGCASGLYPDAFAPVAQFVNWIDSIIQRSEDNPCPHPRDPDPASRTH

Calcitonin receptor = biological target: T4, Calcitonin receptor (Homo sapiens, UniProt P30988); assay type: cell membranes, Membrane; conditions: t47d; note: in other assays of this panel Not Active means under 50% inhibition at 10 µM
T4 sequence (P30988 whole entry): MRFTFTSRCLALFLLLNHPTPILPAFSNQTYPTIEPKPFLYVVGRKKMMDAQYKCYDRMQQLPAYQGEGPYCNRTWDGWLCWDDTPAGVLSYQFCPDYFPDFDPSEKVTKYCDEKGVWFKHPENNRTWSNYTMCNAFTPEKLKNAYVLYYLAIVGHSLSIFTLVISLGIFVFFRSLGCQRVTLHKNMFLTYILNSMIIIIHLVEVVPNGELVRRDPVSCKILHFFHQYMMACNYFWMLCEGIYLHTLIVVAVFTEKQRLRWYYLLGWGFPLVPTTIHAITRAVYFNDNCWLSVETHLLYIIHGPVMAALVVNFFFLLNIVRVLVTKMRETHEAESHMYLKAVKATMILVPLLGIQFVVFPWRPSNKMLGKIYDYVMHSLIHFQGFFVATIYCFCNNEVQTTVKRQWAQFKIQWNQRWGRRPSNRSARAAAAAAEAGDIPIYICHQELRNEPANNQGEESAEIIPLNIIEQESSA

[11] = DRUGMATRIX: Glutamate, NMDA, Phencyclidine radioligand binding (ligand: [3H] TCP); assay type: cell membranes, Rattus norvegicus, Wistar, Cerebral cortex, Membrane; conditions: Not Active = under 50% inhibition at 10 µM
[12] = DRUGMATRIX: GABAA, Muscimol, Central radioligand binding (ligand: [3H] Muscimol); assay type: cell membranes, Rattus norvegicus, Wistar, Brain, Membrane; conditions: Not Active = under 50% inhibition at 10 µM
[13] = DRUGMATRIX: Sigma2 radioligand binding (ligand: [3H] Ifenprodil); assay type: cell membranes, Rattus norvegicus, Wistar, Brain, Membrane; conditions: Not Active = under 50% inhibition at 10 µM
[14] = biological target: Mitogen-activated protein kinase 1 (Homo sapiens, UniProt P28482); test: DRUGMATRIX: Protein Serine/Threonine Kinase, ERK2 enzyme inhibition (substrate: Myelin Basic Protein); design: species or system Escherichia coli; conditions: Not Active = under 50% inhibition at 10 µM
Mitogen-activated protein kinase 1, sequence (P28482 whole entry): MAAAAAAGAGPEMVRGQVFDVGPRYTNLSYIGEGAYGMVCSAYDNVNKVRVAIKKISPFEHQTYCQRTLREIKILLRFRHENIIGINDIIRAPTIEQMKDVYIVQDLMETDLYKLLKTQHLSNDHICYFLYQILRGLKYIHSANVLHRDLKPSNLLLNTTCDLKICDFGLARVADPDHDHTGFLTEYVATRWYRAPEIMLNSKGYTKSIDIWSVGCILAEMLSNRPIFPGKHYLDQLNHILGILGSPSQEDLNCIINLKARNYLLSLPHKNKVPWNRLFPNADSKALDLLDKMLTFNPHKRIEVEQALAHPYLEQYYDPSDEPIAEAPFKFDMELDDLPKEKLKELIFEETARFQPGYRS

[15] = biological target: Sodium-dependent dopamine transporter (Homo sapiens, UniProt Q01959); test: DRUGMATRIX: Dopamine Transporter radioligand binding (ligand: [125I] RTI-55); assay type: cell membranes, CHO-K1, Membrane; conditions: cho-k1; Not Active = under 50% inhibition at 10 µM
Sodium-dependent dopamine transporter, sequence (Q01959 whole entry): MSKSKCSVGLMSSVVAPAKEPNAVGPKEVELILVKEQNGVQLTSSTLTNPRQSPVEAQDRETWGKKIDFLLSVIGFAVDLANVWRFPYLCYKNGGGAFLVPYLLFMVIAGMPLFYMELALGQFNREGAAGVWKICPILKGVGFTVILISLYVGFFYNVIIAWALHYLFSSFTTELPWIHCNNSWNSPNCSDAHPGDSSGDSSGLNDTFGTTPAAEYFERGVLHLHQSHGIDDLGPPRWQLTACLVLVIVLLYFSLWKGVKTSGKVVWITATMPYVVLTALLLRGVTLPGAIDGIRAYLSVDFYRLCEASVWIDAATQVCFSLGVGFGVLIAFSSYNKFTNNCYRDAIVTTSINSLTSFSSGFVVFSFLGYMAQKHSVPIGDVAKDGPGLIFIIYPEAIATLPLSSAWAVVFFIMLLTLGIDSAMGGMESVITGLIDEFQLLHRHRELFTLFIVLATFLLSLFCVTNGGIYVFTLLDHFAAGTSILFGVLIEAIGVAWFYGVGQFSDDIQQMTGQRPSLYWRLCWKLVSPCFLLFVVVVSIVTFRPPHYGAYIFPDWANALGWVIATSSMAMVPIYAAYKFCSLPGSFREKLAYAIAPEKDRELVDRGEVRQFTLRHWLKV

[16] = biological target: Mitogen-activated protein kinase 14 (Homo sapiens, UniProt Q16539); design: species or system Escherichia coli
Mitogen-activated protein kinase 14, sequence (Q16539 whole entry): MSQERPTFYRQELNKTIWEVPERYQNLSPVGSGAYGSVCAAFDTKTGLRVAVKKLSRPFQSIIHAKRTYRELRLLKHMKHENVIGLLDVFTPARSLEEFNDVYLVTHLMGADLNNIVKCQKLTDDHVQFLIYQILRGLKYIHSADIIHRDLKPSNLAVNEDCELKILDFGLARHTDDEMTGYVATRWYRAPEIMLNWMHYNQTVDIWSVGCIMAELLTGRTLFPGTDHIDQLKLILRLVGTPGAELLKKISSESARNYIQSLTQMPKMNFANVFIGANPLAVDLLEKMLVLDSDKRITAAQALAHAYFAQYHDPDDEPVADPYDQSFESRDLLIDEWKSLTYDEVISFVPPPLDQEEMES

D(1A) dopamine receptor, sequence (P21728 whole entry): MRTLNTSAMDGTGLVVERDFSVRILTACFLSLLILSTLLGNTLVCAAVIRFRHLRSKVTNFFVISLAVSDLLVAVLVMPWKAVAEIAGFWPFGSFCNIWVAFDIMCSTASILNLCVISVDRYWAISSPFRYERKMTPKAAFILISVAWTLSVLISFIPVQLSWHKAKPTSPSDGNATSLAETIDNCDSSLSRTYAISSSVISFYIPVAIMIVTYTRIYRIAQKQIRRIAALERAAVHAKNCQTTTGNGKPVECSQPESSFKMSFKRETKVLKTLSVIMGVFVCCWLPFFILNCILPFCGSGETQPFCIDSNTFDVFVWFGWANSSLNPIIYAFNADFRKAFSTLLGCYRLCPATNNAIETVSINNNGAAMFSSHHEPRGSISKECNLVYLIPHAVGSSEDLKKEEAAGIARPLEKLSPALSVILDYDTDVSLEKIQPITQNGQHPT

Cc1cc(NS(=O)(=O)c2ccc(N)cc2)no1 [SULFAMETHOXAZOLE]
Not Active: IC50 (D(1A) dopamine receptor) | IC50 [1] | IC50 [2] | Ki [2] | IC50 (Insulin receptor) | IC50 [3] | IC50 [4] | IC50 [5] | IC50 [6] | Ki [6] | IC50 [7] | IC50 [8] | IC50 [9] | Ki [9] | IC50 [10] | Ki [10] | IC50 (Neutrophil elastase) | IC50 (Calcitonin receptor) | IC50 [11] | Ki [11] | IC50 [12] | Ki [12] | IC50 [13] | Ki [13] | IC50 [14] | IC50 [15] | IC50 [16]

CC1=C(/C=C/C(C)=C/C=C/C(C)=C\C(=O)O)C(C)(C)CCC1 [ISOTRETINOIN]
Not Active: IC50 (D(1A) dopamine receptor) | IC50 [1] | IC50 [2] | Ki [2] | IC50 (Insulin receptor) | IC50 [3] | IC50 [4] | IC50 [5] | IC50 [6] | Ki [6] | IC50 [7] | IC50 [8] | IC50 [9] | Ki [9] | IC50 [10] | Ki [10] | IC50 (Neutrophil elastase) | IC50 (Calcitonin receptor) | IC50 [11] | Ki [11] | IC50 [12] | Ki [12] | IC50 [13] | Ki [13] | IC50 [15]
0.462 µM: IC50 ([14]; read-out: IC50)
2.53 µM: IC50 ([16]; read-out: IC50)

C[C@]12Cc3c[nH]nc3C[C@@H]1CC[C@@H]1[C@@H]2CC[C@@]2(C)[C@H]1CC[C@]2(C)O [STANOZOLOL]
Not Active: IC50 (D(1A) dopamine receptor) | IC50 [1] | IC50 [2] | Ki [2] | IC50 (Insulin receptor) | IC50 [3] | IC50 [4] | IC50 [5] | IC50 [6] | Ki [6] | IC50 [7] | IC50 [8] | IC50 [9] | Ki [9] | IC50 [10] | Ki [10] | IC50 (Neutrophil elastase) | IC50 (Calcitonin receptor) | IC50 [11] | Ki [11] | IC50 [12] | Ki [12] | IC50 [13] | Ki [13] | IC50 [14] | IC50 [15] | IC50 [16]

NCCCC[C@H](N[C@@H](CCc1ccccc1)C(=O)O)C(=O)N1CCC[C@H]1C(=O)O [LISINOPRIL ANHYDROUS]
Not Active: IC50 (D(1A) dopamine receptor) | IC50 [1] | IC50 [2] | Ki [2] | IC50 (Insulin receptor) | IC50 [3] | IC50 [4] | IC50 [5] | IC50 [6] | Ki [6] | IC50 [7] | IC50 [8] | IC50 [9] | Ki [9] | IC50 [10] | Ki [10] | IC50 (Neutrophil elastase) | IC50 (Calcitonin receptor) | IC50 [11] | Ki [11] | IC50 [12] | Ki [12] | IC50 [13] | Ki [13] | IC50 [14] | IC50 [15] | IC50 [16]

CC(=O)S[C@@H]1CC2=CC(=O)CC[C@]2(C)[C@H]2CC[C@@]3(C)[C@@H](CC[C@@]34CCC(=O)O4)[C@H]12 [SPIRONOLACTONE]
Not Active: IC50 (D(1A) dopamine receptor) | IC50 [1] | IC50 [2] | Ki [2] | IC50 (Insulin receptor) | IC50 [3] | IC50 [4] | IC50 [5] | IC50 [6] | Ki [6] | IC50 [7] | IC50 [8] | IC50 [9] | Ki [9] | IC50 [10] | Ki [10] | IC50 (Neutrophil elastase) | IC50 (Calcitonin receptor) | IC50 [11] | Ki [11] | IC50 [12] | Ki [12] | IC50 [13] | Ki [13] | IC50 [14] | IC50 [15] | IC50 [16]
